target: human RIP1 kinase domain (2-375) (Homo sapiens (Human), UniProt Q13546); test: biochemical; type: biochemical; details: Table 1; apparent Ki (Morrison tight-binding fit); 50 nM RIP1 kinase domain, 50 uM ATP, 2 hours incubation; read-out: RIP1 Ki
How it was run: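 50 nM purified kinase domain from baculovirus-infected insect cells, incubated 2 h with compound in 50 mM Hepes pH 7.5, 30 mM MgCl2, 1 mM DTT, 50 uM ATP, 0.002% Brij-35, 0.5% DMSO. ADP formation read by Transcreener FP at 633 nm excitation. Ki^app fitted with the Morrison tight-binding equation.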

human RIP1 kinase domain (2-375), sequence (Q13546 2-375): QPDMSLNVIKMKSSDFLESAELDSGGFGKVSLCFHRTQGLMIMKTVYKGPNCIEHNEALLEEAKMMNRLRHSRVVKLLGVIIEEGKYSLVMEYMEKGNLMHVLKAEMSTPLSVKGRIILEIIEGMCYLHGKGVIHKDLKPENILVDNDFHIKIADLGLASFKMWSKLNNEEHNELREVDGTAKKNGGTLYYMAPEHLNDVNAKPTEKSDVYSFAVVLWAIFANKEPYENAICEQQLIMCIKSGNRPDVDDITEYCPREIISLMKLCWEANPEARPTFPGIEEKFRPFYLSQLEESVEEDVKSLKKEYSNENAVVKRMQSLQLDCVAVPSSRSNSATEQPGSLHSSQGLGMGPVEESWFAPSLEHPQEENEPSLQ

| SMILES | Ki |
| --- | --- |
| CN1C(=O)[C@@H](NC(=O)c2cc3n(n2)CCCN(c2ccccc2)C3)COc2ccccc21 [Example 6, N-[(3S)-5-methyl-4-oxo-2,3-dihydro-1,5-benzoxazepin-3-yl]-5-phenyl-4,6,7,8-tetrahydro pyrazolo[1,5-a][1,4]diazepine-2-carboxamide] | 375 nM |

same assay, conditions: human RIP1 kinase domain (2-375), 50 uM ATP, 2 hours incubation, Transcreener ADP assay; read-out: RIP1 Ki

| SMILES | Ki |
| --- | --- |
| CN1C(=O)[C@@H](NC(=O)c2cn(Cc3ccc(F)c(F)c3)cn2)COc2c1cnn2C [Example 183, (S)-1-(3,4-difluorobenzyl)-N-(1,4-dimethyl-5-oxo-4,5,6,7-tetrahydro-1H-pyrazolo[3,4-b][1,4]oxazepin-6-yl)-1H-imidazole-4-carboxamide] | 1600 nM |
| CN1C(=O)C(NC(=O)c2cc3c(cn2)cnn3[C@H]2CCOC2)COc2ccccc21 (stereo partly drawn) [Example 156, N-(5-methyl-4-oxo-2,3,4,5-tetrahydrobenzo[b][1,4]oxazepin-3-yl)-1-((S)-tetrahydrofuran-3-yl)-1H-pyrazolo[4,3-c]pyridine-6-carboxamide] | 68.3 nM |
| CCOc1ccc2[nH]nc(C(=O)N[C@H]3COc4ccccc4N(C)C3=O)c2n1 [Example 138, 5-ethoxy-N-[(3S)-5-methyl-4-oxo-2,3-dihydro-1,5-benzoxazepin-3-yl]-1H-pyrazolo[4,3-b]pyridine-3-carboxamide] | 3700 nM |
| CN1C(=O)C(NC(=O)c2n[nH]c3c2C[C@@H](C(F)(F)F)CC3)CCn2ccnc21 (stereo partly drawn) [Example 176, (5S)—N-(9-methyl-8-oxo-6,7,8,9-tetrahydro-5H-imidazo[1,2-a][1,3]diazepin-7-yl)-5-(trifluoromethyl)-4,5,6,7-tetrahydro-1H-indazole-3-carboxamide] | 1400 nM |
| CN1C(=O)[C@@H](NC(=O)c2ncn(Cc3ccc(F)cc3F)n2)CCn2nc(C3CC3)cc21 [Example 224, (S)—N-(2-cyclopropyl-4-methyl-5-oxo-5,6,7,8-tetrahydro-4H-pyrazolo[1,5-a][1,3]diazepin-6-yl)-1-(2,4-difluorobenzyl)-1H-1,2,4-triazole-3-carboxamide] | 21.9 nM |

same assay, conditions: human RIP1 kinase domain (2-375), Transcreener ADP assay, 50 uM ATP, 2 hours incubation; read-out: RIP1 Ki

| SMILES | Ki |
| --- | --- |
| CN1C(=O)[C@@H](NC(=O)c2nnn3c2CC(C(F)(F)C(F)(F)F)CC3)COc2ccccc21 (stereo partly drawn) [Example 277, N—((S)-5-methyl-4-oxo-2,3,4,5-tetrahydrobenzo[b][1,4]oxazepin-3-yl)-5-(perfluoroethyl)-4,5,6,7-tetrahydro-[1,2,3]triazolo[1,5-a]pyridine-3-carboxamide] | 23.9 nM |

same assay, conditions: read-out: RIP1 Ki

| SMILES | Ki |
| --- | --- |
| CN1C(=O)[C@@H](NC(=O)c2n[nH]c3c2CC(C)(C)CC3)COc2ccccc21 [Example 18, 5,5-dimethyl-N-[(3S)-5-methyl-4-oxo-2,3-dihydro-1,5-benzoxazepin-3-yl]-1,4,6,7-tetrahydroindazole-3-carboxamide] | 415 nM |

same assay, conditions: tight-binding apparent inhibition constant; human RIP1 kinase domain (2-375) 50 nM, 50 uM ATP, 2 hours; read-out: Ki

| SMILES | Ki |
| --- | --- |
| CCC[C@H]1CCCc2nc(C(=O)N[C@H]3COc4cc(F)cc(F)c4NC3=O)nn21 (single isomer, unassigned) [Example 446] | 7.06 nM |
| CN1C(=O)[C@@H](NC(=O)c2nc3cccc(C4CCOCC4)n3n2)COc2ccccc21 [Example 405, (S)—N-(5-methyl-4-oxo-2,3,4,5-tetrahydrobenzo[b][1,4]oxazepin-3-yl)-5-(tetrahydro-2H-pyran-4-yl)-[1,2,4]triazolo[1,5-a]pyridine-2-carboxamide] | 35.6 nM |

Next, values leading:

| Ki | SMILES |
| --- | --- |
| 40 nM | Cc1ncc2n1CC[C@@H](NC(=O)c1ncn(Cc3ccccc3F)n1)C(=O)N2C [Example 576, 1-[(2-fluorophenyl)methyl]-N-(3R)-1,7-dimethyl-2-oxo-4,5-dihydro-3H-imidazo[1,5-a][1, 3]diazepin-3-yl-1,2,4-triazole-3-carboxamide] |
| 130 nM | Cc1nc(C)n2c1N(C)C(=O)[C@H](NC(=O)c1ncn(Cc3c(F)cccc3F)n1)CC2 [Example 597, 1-[(2,6-difluorophenyl)methyl]-N-(3R)-1,7,9-trimethyl-2-oxo-4,5-dihydro-3H-imidazo[1,5-a][1,3]diazepin-3-yl-1,2,4-triazole-3-carboxamide] |
| 210 nM | CN1C(=O)[C@H](NC(=O)c2nnc(Cc3ccc(F)cc3)[nH]2)CCn2nc(C(F)(F)F)cc21 [Example 550] |
| 50 nM | CN1C(=O)[C@H](NC(=O)c2ncn(Cc3c(F)cccc3F)n2)CCn2cncc21 [Example 600, 1-[(2,6-difluorophenyl)methyl]-N-[(3R)-1-methyl-2-oxo-4,5-dihydro-3H-imidazo[1,5-a][1,3]diazepin-3-yl]-1,2,4-triazole-3-carboxamide] |
| 130 nM | Cc1nc(C)n2c1N(C)C(=O)[C@H](NC(=O)c1ncn(Cc3cc(F)ccc3F)n1)CC2 [Example 598, 1-[(2,5-difluorophenyl)methyl]-N-(3R)-1,7,9-trimethyl-2-oxo-4,5-dihydro-3H-imidazo[1,5-a][1,3]diazepin-3-yl-1,2,4-triazole-3-carboxamide] |
| 61 nM | CN1C(=O)[C@@H](NC(=O)c2ncn(Cc3ncccc3Cl)n2)CCn2nccc21 (racemic) [Example 656, 1-[(3-chloro-2-pyridyl)methyl]-N-[rac-(6S)-4-methyl-5-oxo-7,8-dihydro-6H-pyrazolo[1,5-a][1,3]diazepin-6-yl]-1,2,4-triazole-3-carboxamide] |
| 4.9 nM | O=C(N[C@H]1COc2cc(F)cc(F)c2NC1=O)c1ncc2c(n1)C1(CCCC1)OC2 [Example 481, N-[(3S)-6,8-difluoro-4-oxo-3,5-dihydro-2H-1,5-benzoxazepin-3-yl]spiro[5H-furo[3,4-d]pyrimidine-7,1′-cyclopentane]-2-carboxamide] |
| 68 nM | Cc1cc2n(n1)CC[C@H](NC(=O)c1ncc3cnn(C4CCCC4)c3n1)C(=O)N2C [Example 543, 1-cyclopentyl-N-[(6S)-2,4-dimethyl-5-oxo-7,8-dihydro-6H-pyrazolo[1,5-a][1,3]diazepin-6-yl]pyrazolo[3,4-d]pyrimidine-6-carboxamide] |
| 90 nM | CN1C(=O)[C@@H](NC(=O)c2ncc3c(n2)C2(CCOC2)OC3)COc2ccccc21 (stereo partly drawn) [Example 508, N-[(3S)-5-methyl-4-oxo-2,3-dihydro-1,5-benzoxazepin-3-yl]spiro[5H-furo[3,4-d]pyrimidine-7,3′-tetrahydrofuran]-2-carboxamide] |
| 57 nM | Cc1cn2c(n1)N(C)C(=O)[C@H](NC(=O)c1ncn(Cc3cc(F)ccc3F)n1)CC2 [Example 661, 1-[(2,5-difluorophenyl)methyl]-N-(7R)-2,9-dimethyl-8-oxo-6,7-dihydro-5H-imidazo[1,2-a][1,3]diazepin-7-yl-1,2,4-triazole-3-carboxamide] |
| 2800 nM | Cc1cc2n(n1)CC[C@H](NC(=O)c1ncn(CC3CCOC3)n1)C(=O)N2C (stereo partly drawn) [Example 479, N-(6S)-2,4-dimethyl-5-oxo-7,8-dihydro-6H-pyrazolo[1,5-a][1,3]diazepin-6-yl-1-(tetrahydrofuran-3-ylmethyl)-1,2,4-triazole-3-carboxamide] |
| 48 nM | COc1ccccc1Cn1cnc(C(=O)N[C@H]2CCn3nc(C)cc3N(C)C2=O)n1 [Example 589, 1-[(2-methoxyphenyl)methyl]-N-(6S)-2,4-dimethyl-5-oxo-7,8-dihydro-6H-pyrazolo[1,5-a][1,3]diazepin-6-yl-1,2,4-triazole-3-carboxamide] |
| 180 nM | CCC[C@]1(C)OCc2cnc(C(=O)N[C@H]3COc4cc(F)cc(F)c4NC3=O)nc21 [Example 619, (7S)-7-methyl-7-propyl-N-[(3S)-6,8-difluoro-4-oxo-3,5-dihydro-2H-1,5-benzoxazepin-3-yl]-5H-furo[3,4-d]pyrimidine-2-carboxamide] |
